Test results published in patent publication US9079866B2, “Flap modulators” (JANSSEN PHARMACEUTICA NV, priority 2013, dated 2015).
Where a name gives a salt, the structure may show the parent alone. Read-outs that look alike come from different tables or passages of the source.

Legend:
[1] = molecular target: human FLAP (Homo sapiens (Human), UniProt P20292); test: FLAP binding assay (HTRF format)
In short: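 Binding of compounds to FLAP read out as HTRF ratio. Values are the mean of two assay plates, each sample run in duplicate per plate.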

[2] = test system: leukotriene pathway in human whole blood (LTB4 levels); test: Human whole blood assay (A23187-stimulated LTB4); format: cell-based; conditions: Homo sapiens, read-out: LTB4 IC50 1:1
In short: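 Heparinised human whole blood diluted 1:1 in RPMI, pre-incubated 15 min at 37° Celsius with compound, then stimulated with A23187 (7 μg/mL) for 30 min at 37° Celsius. Plasma LTB4 measured by immunoassay kit; IC50 from 4-parameter fit; single replicate per plate, at least one healthy donor.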

[3] = read-out: FLAP Binding wild type HTRF Ki
[4] = human whole blood diluted 1:1 in RPMI, A23187-stimulated LTB4
[5] = human FLAP wild type, HTRF format, average of two plates, duplicates
[6] = human whole blood diluted 1:1, A23187-stimulated

human FLAP, sequence (P20292 whole entry): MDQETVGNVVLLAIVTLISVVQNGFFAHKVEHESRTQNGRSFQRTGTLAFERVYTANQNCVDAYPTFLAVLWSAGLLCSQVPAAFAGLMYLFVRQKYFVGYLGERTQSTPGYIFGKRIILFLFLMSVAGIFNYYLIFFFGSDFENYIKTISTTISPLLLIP

| IC50 [2, 4] [µM] | Ki [1, 5] [µM] | Ki ([1]; wild type FLAP, HTRF format) [µM] | IC50 [2, 6] [µM] | Compound | other results |
| --- | --- | --- | --- | --- | --- |
| 0.003 | 0.001 | – | – | CC(C)N(CCO)S(=O)(=O)c1ccccc1-c1ccc(-c2cnc(N)cn2)c(F)c1 [Example 141, 4′-(5-Aminopyrazin-2-yl)-3′-fluoro-N-(2-hydroxyethyl)-N-(1-methylethyl)biphenyl-2-sulfonamide] | – |
| – | – | 0.25 | 2.83 | Nc1cnc(-c2ccc(-c3ccc(OC(F)(F)F)cc3F)cc2F)cn1 [Example 467, 5-[2′,3-Difluoro-4′-(trifluoromethoxy)biphenyl-4-yl]pyrazin-2-amine] | – |
| 0.053 | 0.003 | – | – | Nc1cnc(-c2ccc(-c3ccccc3S(=O)(=O)NC3CC4CCC3C4)cc2F)cn1 (racemic) [Example 10, racemic (endo)-4′-(5-Aminopyrazin-2-yl)-N-bicyclo[2.2.1]hept-2-yl-3′-fluorobiphenyl-2-sulfonamide] | – |
| – | – | 0.0377 | 0.195 | Nc1cnc(-c2ccc(-c3ccccc3-c3cnc(N4CCOCC4)nc3)cc2F)cn1 [Example 850, 5-[3-Fluoro-2′-(2-morpholin-4-ylpyrimidin-5-yl)biphenyl-4-yl]pyrazin-2-amine] | – |
| – | – | 0.108 | 0.726 | CC(C)(C)NS(=O)(=O)c1ccccc1-c1ccc(-c2ccc(N)nn2)c(F)c1 [Example 417, 4′-(6-Aminopyridazin-3-yl)-N-tert-butyl-3′-fluorobiphenyl-2-sulfonamide] | – |
| – | – | 0.012 | 0.066 | Cc1nccc(Oc2ccccc2-c2ccc(-c3cnc(N)cn3)c(F)c2)n1 [Example 541, 5-{3-Fluoro-2′-[(2-methylpyrimidin-4-yl)oxy]biphenyl-4-yl}pyrazin-2-amine] | – |
| 0.145 | 0.01 | – | – | Nc1cnc(-c2ccc(-c3ccccc3S(=O)(=O)N[C@@H]3CCCNC3=O)cc2F)cn1 [Example 113, (R)-4′-(5-Aminopyrazin-2-yl)-3′-fluoro-N-(2-oxopiperidin-3-yl)biphenyl-2-sulfonamide] | – |
| – | – | 0.13 | 1.05 | Nc1ncc(-c2ccc(-c3cccnc3OC3CCOCC3)cc2F)cn1 [Example 654, 5-{2-Fluoro-4-[2-(tetrahydro-2H-pyran-4-yloxy)pyridin-3-yl]phenyl}pyrimidin-2-amine] | – |
| 0.018 | 0.001 | – | – | CC(C)(C)NS(=O)(=O)c1ccccc1-c1ccc(-c2cnc(N)cn2)c(F)c1 [Example 4, 4′-(5-Aminopyrazin-2-yl)-N-tert-butyl-3′-fluorobiphenyl-2-sulfonamide] | – |
| 0.031 | 0.002 | – | – | O=S(=O)(c1ccccc1-c1ccc(-c2cnc3[nH]ccc3n2)c(F)c1)N1CCOCC1 [Example 375, 2-[3-Fluoro-2′-(morpholin-4-ylsulfonyl)biphenyl-4-yl]-5H-pyrrolo[2,3-b]pyrazine] | – |
| – | – | 0.103 | 0.191 | N#Cc1nc(N)cnc1-c1ccc(-c2ccccc2S(=O)(=O)N2CCS(=O)(=O)CC2)cc1F [Example 704, 6-Amino-3-{2′-[(1,1-dioxidothiomorpholin-4-yl)sulfonyl]-3-fluorobiphenyl-4-yl}pyrazine-2-carbonitrile] | – |
| 0.376 | 0.262 | – | – | Nc1ncc(-c2ccc(-c3ccccc3S(=O)(=O)N3CC4(COC4)C3)cc2F)cn1 [Example 312, 5-(2′-(2-Oxa-6-azaspiro[3.3]heptan-6-ylsulfonyl)-3-fluoro-[1,1′-biphenyl]-4-yl)pyrimidin-2-amine] | – |
| – | – | 0.0019 | 0.0978 | Nc1cnc(-c2ccc(-c3ccc(C(F)(F)F)cc3CN3CCOCC3)cc2F)cn1 [Example 605, 5-[3-Fluoro-2′-(morpholin-4-ylmethyl)-4′-(trifluoromethyl)biphenyl-4-yl]pyrazin-2-amine] | – |
| 0.586 | 0.08 | – | – | Nc1ncc(-c2ccc(-c3ccccc3S(=O)(=O)C3CC3)cc2F)cn1 [Example 254, 5-[2′-(Cyclopropylsulfonyl)-3-fluorobiphenyl-4-yl]pyrimidin-2-amine] | – |
| 0.036 | 0.022 | – | – | C[C@H](CO)NS(=O)(=O)c1ccccc1-c1ccc(-c2cnc(N)nc2)c(F)c1 [Example 289, 4′-(2-Aminopyrimidin-5-yl)-3′-fluoro-N-[(1R)-2-hydroxy-1-methylethyl]biphenyl-2-sulfonamide] | – |
| 0.03 | 0.059 | – | – | CN1CCCC[C@@H](NS(=O)(=O)c2ccccc2-c2ccc(-c3cnc(N)cn3)c(F)c2)C1=O [Example 29, (S)-4′-(5-Aminopyrazin-2-yl)-3′-fluoro-N-[(3S)-1-methyl-2-oxoazepan-3-yl]biphenyl-2-sulfonamide] | – |
| – | – | 0.509 | 0.907 | Nc1ncc(-c2ccc(-c3ccccc3-c3cnc(N)nc3)cc2F)cn1 [Example 844, 5,5′-(3′-Fluorobiphenyl-2,4′-diyl)dipyrimidin-2-amine] | – |
| 0.097 | 0.003 | – | – | CC[C@H](C)[C@@H](CO)NS(=O)(=O)c1ccccc1-c1ccc(-c2cnc(N)cn2)c(F)c1 [Example 84, 4′-(5-Aminopyrazin-2-yl)-3′-fluoro-N-[(1S,2S)-1-(hydroxymethyl)-2-methylbutyl]biphenyl-2-sulfonamide] | – |
| 0.066 | 0.005 | – | – | CC(C)(NS(=O)(=O)c1ccccc1-c1ccc(-c2cnc(N)nc2)c(F)c1)C(F)(F)F [Example 296, 4′-(2-Aminopyrimidin-5-yl)-3′-fluoro-N-(2,2,2-trifluoro-1,1-dimethylethyl)biphenyl-2-sulfonamide trifluoroacetic acid salt] | – |
| 0.12 | 0.003 | – | – | Nc1cnc(-c2ccc(-c3ccccc3CSc3ccncn3)cc2F)cn1 [Example 243, 5-(3-Fluoro-2′-((pyrimidin-4-ylthio)methyl)-[1,1′-biphenyl]-4-yl)pyrazin-2-amine hydrochloride] | – |
| 0.014 | 0.002 | – | – | CC(C)CNS(=O)(=O)c1ccccc1-c1ccc(-c2cnc(N)cn2)c(F)c1 [Example 7, 4′-(5-Aminopyrazin-2-yl)-3′-fluoro-N-(2-methylpropyl)biphenyl-2-sulfonamide] | – |
| – | – | 0.001 | 0.025 | Nc1nccc(Oc2ccccc2-c2ccc(-c3cnc4[nH]ccc4c3)c(F)c2)n1 [Example 523, 4-{[3′-Fluoro-4′-(1H-pyrrolo[2,3-b]pyridin-5-yl)biphenyl-2-yl]oxy}pyrimidin-2-amine] | – |
| 0.082 | 0.005 | – | – | CC(C)(C)[C@@H](CO)NS(=O)(=O)c1ccccc1-c1ccc(-c2cnc(N)cn2)c(F)c1 [Example 149, (S)-4′-(5-Aminopyrazin-2-yl)-3′-fluoro-N-(1-hydroxy-3,3-dimethylbutan-2-yl)-[1,1′-biphenyl]-2-sulfonamide] | – |
| – | – | 0.032 | 0.272 | CC(C)(C#N)S(=O)(=O)c1ccccc1-c1ccc(-c2cnc(N)cn2)c(F)c1 [Example 735, 2-{[4′-(5-Aminopyrazin-2-yl)-3′-fluorobiphenyl-2-yl]sulfonyl}-2-methylpropanenitrile] | – |
| – | – | 0.009 | 0.166 | CC(C)(C)NS(=O)(=O)c1ccccc1-c1ccc(-c2ncc(N)nc2C#N)c(F)c1 [Example 435, 4′-(5-Amino-3-cyanopyrazin-2-yl)-N-tert-butyl-3′-fluorobiphenyl-2-sulfonamide] | – |
| – | – | 0.0091 | 0.0979 | C[C@@H](NC(=O)c1cc(C(F)(F)F)ccc1-c1ccc(-c2cnc(N)cn2)c(F)c1)C(F)(F)F [Example 787, 2-[4-(5-Aminopyrazin-2-yl)-3-fluoro-phenyl]-5-(trifluoromethyl)-N-[(1R)-2,2,2-trifluoro-1-methyl-ethyl]benzamide] | – |
| – | – | – | – | C[Si](C)(C)CCOCS(=O)(=O)c1ccccc1-c1ccc(-c2cnc(N)cn2)c(F)c1 [Example 245, 5-[3-Fluoro-2′-({[2-(trimethylsilyl)ethoxy]methyl}sulfonyl)biphenyl-4-yl]pyrazin-2-amine hydrochloride] | Ki [1, 3]: 0.045 µM; IC50 [2]: 0.233 µM |
| – | – | 0.002 | 0.055 | Nc1ccnc(Oc2cc(C(F)(F)F)ccc2-c2ccc(-c3cnc(N)nc3)c(F)c2)n1 [Example 559, 5-{2′-[(4-Aminopyrimidin-2-yl)oxy]-3-fluoro-4′-(trifluoromethyl)biphenyl-4-yl}pyrimidin-2-amine] | – |
| 0.006 | 0.001 | – | – | CCNS(=O)(=O)c1cc(C(F)(F)F)ccc1-c1ccc(-c2cnc(N)cn2)c(F)c1 [Example 211, 4′-(5-Aminopyrazin-2-yl)-N-ethyl-3′-fluoro-4-(trifluoromethyl)biphenyl-2-sulfonamide] | – |
| – | – | 0.0127 | 0.0996 | Nc1cnc(-c2ccc(-c3ccccc3-c3cnc(N)cn3)cc2F)cn1 [Example 840, 5,5′-(3′-Fluorobiphenyl-2,4′-diyl)dipyrazin-2-amine] | – |

| Compound | IC50 [2, 4] [µM] | Ki [1, 5] [µM] | Ki ([1]; wild type FLAP, HTRF format) [µM] | IC50 [2, 6] [µM] | other results |
| --- | --- | --- | --- | --- | --- |
| CC(C)(CO)NS(=O)(=O)c1ccccc1-c1ccc(-c2cnc(N)nc2)c(F)c1 [Example 280, 4′-(2-Aminopyrimidin-5-yl)-3′-fluoro-N-(2-hydroxy-1,1-dimethylethyl)biphenyl-2-sulfonamide trifluoroacetic acid salt] | 0.087 | – | – | – | Ki [1, 3]: 0.003 µM |
| CCCS(=O)(=O)Nc1ccccc1-c1ccc(-c2cnc(N)cn2)c(F)c1 [Example 36, N-[4′-(5-Aminopyrazin-2-yl)-3′-fluorobiphenyl-2-yl]propane-1-sulfonamide] | 0.12 | – | – | – | Ki [1, 3]: 0.01 µM |
| C[C@@H](NS(=O)(=O)c1ccccc1-c1ccc(-c2cnc(N)nc2)c(F)c1)C(F)(F)F [Example 268, 4′-(2-Aminopyrimidin-5-yl)-3′-fluoro-N-[(1R)-2,2,2-trifluoro-1-methylethyl]biphenyl-2-sulfonamide trifluoroacetic acid salt] | 0.056 | – | – | – | Ki [1, 3]: 0.011 µM |
| C[Si](C)(C)CCOCSc1ccccc1-c1ccc(-c2cnc(N)nc2)c(F)c1 [Example 340, 5-[3-Fluoro-2′-({[2-(trimethylsilyl)ethoxy]methyl}sulfanyl)biphenyl-4-yl]pyrimidin-2-amine] | – | 0.104 | – | – | IC50 [2]: 0.321 µM |
